target: T1, mouse GnRH receptor (Mus musculus, UniProt Q01776); experiment: Radioligand binding, 125I-GnRH-A, 293 cells expressing mouse GnRH receptors; conditions: 10 uM
T1 construct: expressed in transfected cells; host or cells: 293 cells
T1 sequence (Q01776 1-327): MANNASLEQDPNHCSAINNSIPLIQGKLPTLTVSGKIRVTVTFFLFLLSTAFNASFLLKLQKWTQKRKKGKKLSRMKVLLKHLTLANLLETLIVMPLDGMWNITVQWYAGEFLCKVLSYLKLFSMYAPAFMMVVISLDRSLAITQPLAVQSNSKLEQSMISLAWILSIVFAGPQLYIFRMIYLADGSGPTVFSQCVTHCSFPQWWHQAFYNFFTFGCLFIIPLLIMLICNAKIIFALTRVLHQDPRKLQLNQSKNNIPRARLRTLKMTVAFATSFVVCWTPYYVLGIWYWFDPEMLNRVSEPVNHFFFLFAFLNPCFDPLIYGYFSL
Procedure, shortened: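 Bound label captured on 0.1% polyethyleneimine-treated GF/C filters, washed three times with PBS, counted. IC50 derived; identical set-up for every species.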

With `Cc1cc2c(cc1Cc1ccc(C(=O)NC(CO)C(C)C)o1)C(C)(C)CCC2(C)C` (centres unmarked) [drawing 1479] the “% Inhib. @ 10 uM mGnRH” value was 103%.

same assay, conditions: 10 uM; read-out: % Inhib. @ 10 uM mGnRH

Compared with `CCCN(CC1CC1)C(=O)c1ccc(Cc2cc3c(cc2C)C(C)(C)CCC3(C)C)o1`, `CCN(CCO)C(=O)c1ccc(Cc2cc3c(cc2C)C(C)(C)CCC3(C)C)o1` [drawing 1451] is lower in inhibition at 10 µM: 96% for the first, 81% for the second.

Going from `Cc1cc2c(cc1Cc1ccc(C(=O)N(CCN3CCCC3)Cc3ccccc3)o1)C(C)(C)CCC2(C)C` [drawing 1462] to `Cc1cc2c(cc1Cc1ccc(C(=O)N(CCN(C)C)Cc3ccccc3)o1)C(C)(C)CCC2(C)C` [drawing 1255], the inhibition at 10 µM rises from 100% to 104%.

Going from `Cc1cc2c(cc1Cc1ccc(C(=O)NCCC(C)C)o1)C(C)(C)CCC2(C)C` to `CCC(C)CNC(=O)c1ccc(Cc2cc3c(cc2C)C(C)(C)CCC3(C)C)o1` (centres unmarked) [drawing 1499], the inhibition at 10 µM falls from 88% to 73%.

Compared with `Cc1cc2c(cc1Cc1ccc(C(=O)N(CCN(C)C)Cc3ccccc3[N+](=O)[O-])o1)C(C)(C)CCC2(C)C` [drawing 1491], `CCN(Cc1ccc(C)cc1)C(=O)c1ccc(Cc2cc3c(cc2C)C(C)(C)CCC3(C)C)o1` [drawing 1543] is lower in inhibition at 10 µM: 103% for the first, 79% for the second.

First: Cc1cc2c(cc1Cc1ccc(C(=O)NC(C)C3CCCCC3)o1)C(C)(C)CCC2(C)C (centres unmarked) [drawing 1463]
Second: Cc1cc2c(cc1Cc1ccc(C(=O)NC(C)CO)o1)C(C)(C)CCC2(C)C (centres unmarked) [drawing 1241]
The inhibition at 10 µM of the first is lower: 72% for the first, 82% for the second.

Compared with `COCCN1CCN(C(=O)c2ccc(Cc3cc4c(cc3C)C(C)(C)CCC4(C)C)o2)CC1`, `CCN(CC)CCN1CCN(C(=O)c2ccc(Cc3cc4c(cc3C)C(C)(C)CCC4(C)C)o2)CC1` is higher in inhibition at 10 µM: 81% for the first, 98% for the second.

First: Cc1cc2c(cc1Cc1ccc(C(=O)N(Cc3ccco3)C3CC(=O)N(Cc4ccccc4)C3=O)o1)C(C)(C)CCC2(C)C (centres unmarked)
Second: Cc1cc2c(cc1Cc1ccc(C(=O)N(Cc3cccn3C)C3CCN(Cc4ccccc4)C3)o1)C(C)(C)CCC2(C)C (centres unmarked) [drawing 1562]
The inhibition at 10 µM of the first is lower: 20% for the first, 98% for the second.

`Cc1cc2c(cc1Cc1ccc(C(=O)N[C@H]3CC[C@@H](O)CC3)o1)C(C)(C)CCC2(C)C` and `Cc1cc2c(cc1Cc1ccc(C(=O)N3CCC(C)CC3)o1)C(C)(C)CCC2(C)C` [drawing 1493] are the same in inhibition at 10 µM: 82% for the first, 82% for the second.

Going from `Cc1cc2c(cc1Cc1ccc(C(=O)N[C@H](C)c3ccc([N+](=O)[O-])cc3)o1)C(C)(C)CCC2(C)C` to `Cc1cc2c(cc1Cc1ccc(C(=O)NC3CCc4ccccc43)o1)C(C)(C)CCC2(C)C` (centres unmarked) [drawing 1375], the inhibition at 10 µM rises from 44% to 57%.

Going from `COc1ccc(CCNC(=O)c2ccc(Cc3cc4c(cc3C)C(C)(C)CCC4(C)C)o2)cc1Br` [drawing 1532] to `COc1ccc(CCN(CC(C)C)C(=O)c2ccc(Cc3cc4c(cc3C)C(C)(C)CCC4(C)C)o2)cc1OC`, the inhibition at 10 µM rises from 78% to 90%.

Going from `Cc1cc2c(cc1Cc1ccc(C(=O)N3CCC[C@@H]3C(=O)OCc3ccccc3)o1)C(C)(C)CCC2(C)C` to `Cc1cc2c(cc1Cc1ccc(C(=O)N3Cc4ccccc4CC3CO)o1)C(C)(C)CCC2(C)C` (centres unmarked), the inhibition at 10 µM falls from 86% to 61%.

First: Cc1cc2c(cc1Cc1ccc(C(=O)N3CCN(C(c4ccc(F)cc4)c4ccc(F)cc4)CC3)o1)C(C)(C)CCC2(C)C
Second: CC(=O)N1CCN(C(=O)c2ccc(Cc3cc4c(cc3C)C(C)(C)CCC4(C)C)o2)CC1 [drawing 1424]
The inhibition at 10 µM of the first is lower: 16% for the first, 71% for the second.

Compared with `CCN(CC)CCCCNC(=O)c1ccc(Cc2cc3c(cc2C)C(C)(C)CCC3(C)C)o1`, `Cc1cc2c(cc1Cc1ccc(C(=O)NCCCN(C)C)o1)C(C)(C)CCC2(C)C` is lower in inhibition at 10 µM: 101% for the first, 99% for the second.

Compared with `CCOC(CN(CCc1ccccc1)C(=O)c1ccc(Cc2cc3c(cc2C)C(C)(C)CCC3(C)C)o1)OCC` [drawing 1296], `Cc1cc2c(cc1Cc1ccc(C(=O)NCCc3ccc(Oc4ccccc4)cc3)o1)C(C)(C)CCC2(C)C` [drawing 1529] is lower in inhibition at 10 µM: 66% for the first, 57% for the second.

Going from `Cc1cc2c(cc1Cc1ccc(C(=O)N(Cc3ccc(O)cc3)C3CCN(Cc4ccccc4)C3)o1)C(C)(C)CCC2(C)C` (centres unmarked) to `Cc1cc2c(cc1Cc1ccc(C(=O)N(Cc3ccccc3Cl)C3CCN(Cc4ccccc4)CC3)o1)C(C)(C)CCC2(C)C`, the inhibition at 10 µM falls from 82% to 43%.

Compared with `COc1cc2c(cc1OC)CN(C(=O)c1ccc(Cc3cc4c(cc3C)C(C)(C)CCC4(C)C)o1)CC2` [drawing 1253], `Cc1cc2c(cc1Cc1ccc(C(=O)N3CCc4c([nH]c5ccccc45)C3)o1)C(C)(C)CCC2(C)C` is lower in inhibition at 10 µM: 46% for the first, 44% for the second.

Compared with `Cc1cc2c(cc1Cc1ccc(C(=O)N3CCC(NC(=O)OC(C)(C)C)CC3)o1)C(C)(C)CCC2(C)C`, `COC(CCCNC(=O)c1ccc(Cc2cc3c(cc2C)C(C)(C)CCC3(C)C)o1)OC` [drawing 1383] is higher in inhibition at 10 µM: 67% for the first, 101% for the second.

`CCN1CC(N(Cc2ccccc2C#N)C(=O)c2ccc(Cc3cc4c(cc3C)C(C)(C)CCC4(C)C)o2)CN1CC` [drawing 1565] gave an inhibition at 10 µM of 101%.

same assay, conditions: 1 h, substrate remaining; 10 uM compound; closer to zero = closer to 100% inhibition; read-out: S%R 10 uM mGnRHR

Going from `COc1cc(CNC(=O)c2ccc(Cc3cc4c(cc3C)C(C)(C)CCC4(C)C)o2)cc(OC)c1` [Compound 490] to `COc1ccc(C(=O)CNC(=O)c2ccc(Cc3cc4c(cc3C)C(C)(C)CCC4(C)C)o2)cc1` [Compound 474], the remaining activity at 10 µM rises from 4% to 39%.

Compared with `Cc1cc2c(cc1Cc1ccc(C(=O)N3CCC(O)(c4ccc(Cl)cc4)CC3)o1)C(C)(C)CCC2(C)C` [Compound 569], `COc1cccc(N2CCN(C(=O)c3ccc(Cc4cc5c(cc4C)C(C)(C)CCC5(C)C)o3)CC2)c1` [Compound 553] is lower in remaining activity at 10 µM: 58% for the first, 34% for the second.

Going from `Cc1cc2c(cc1Cc1ccc(C(=O)NC(C)CCCC(C)C)o1)C(C)(C)CCC2(C)C` (centres unmarked) [Compound 587] to `Cc1cc2c(cc1Cc1ccc(C(=O)NC(CO)C(C)C)o1)C(C)(C)CCC2(C)C` (centres unmarked) [Compound 574], the remaining activity at 10 µM falls from 29% to 13%.

Compared with `Cc1cc2c(cc1Cc1ccc(C(=O)N(CC#N)Cc3ccccc3)o1)C(C)(C)CCC2(C)C` [Compound 559], `Cc1cc2c(cc1Cc1ccc(C(=O)N(CCc3ccccn3)Cc3ccccc3)o1)C(C)(C)CCC2(C)C` [Compound 595] is lower in remaining activity at 10 µM: 26% for the first, 24% for the second.

First: Cc1cc2c(cc1Cc1ccc(C(=O)NC(C)(C)CO)o1)C(C)(C)CCC2(C)C [Compound 633]
Second: C=C(C)CNC(=O)c1ccc(Cc2cc3c(cc2C)C(C)(C)CCC3(C)C)o1 [Compound 624]
The remaining activity at 10 µM of the first is higher: 10% for the first, 8% for the second.

First: COC(CN(C)C(=O)c1ccc(Cc2cc3c(cc2C)C(C)(C)CCC3(C)C)o1)OC [Compound 611]
Second: Cc1cc2c(cc1Cc1ccc(C(=O)N(C)CC#N)o1)C(C)(C)CCC2(C)C [Compound 580]
The remaining activity at 10 µM of the first is lower: 11% for the first, 18% for the second.

Going from `Cc1cc2c(cc1Cc1ccc(C(=O)NCc3ccccc3C(F)(F)F)o1)C(C)(C)CCC2(C)C` [Compound 516] to `Cc1cc2c(cc1Cc1ccc(C(=O)NCC(F)(F)F)o1)C(C)(C)CCC2(C)C` [Compound 510], the remaining activity at 10 µM rises from 21% to 23%.

First: Cc1cc2c(cc1Cc1ccc(C(=O)NCCCN3CCOCC3)o1)C(C)(C)CCC2(C)C [Compound 460]
Second: Cc1cc2c(cc1Cc1ccc(C(=O)NCCNCCN3CCOCC3)o1)C(C)(C)CCC2(C)C [Compound 465]
The remaining activity at 10 µM of the first is lower: -4% for the first, 32% for the second.

First: Cc1cc2c(cc1Cc1ccc(C(=O)NCC3Nc4ccccc4N3)o1)C(C)(C)CCC2(C)C [Compound 529]
Second: Cc1cc2c(cc1Cc1ccc(C(=O)NCCc3ccc(F)cc3)o1)C(C)(C)CCC2(C)C [Compound 632]
The remaining activity at 10 µM of the first is lower: -3% for the first, 21% for the second.

Going from `Cc1cc2c(cc1Cc1ccc(C(=O)N3CCC(CCCC4CCN(CCO)CC4)CC3)o1)C(C)(C)CCC2(C)C` [Compound 600] to `Cc1cc2c(cc1Cc1ccc(C(=O)NCCCN3CCN(C)CC3)o1)C(C)(C)CCC2(C)C` [Compound 475], the remaining activity at 10 µM rises from -4% to -3%.

Going from `COc1ccccc1CN(C(=O)c1ccc(Cc2cc3c(cc2C)C(C)(C)CCC3(C)C)o1)C1CCN(Cc2ccccc2)C1` (centres unmarked) [Compound 674] to `Cc1cc2c(cc1Cc1ccc(C(=O)N(Cc3ccco3)C3CCN(Cc4ccccc4)C3)o1)C(C)(C)CCC2(C)C` (centres unmarked) [Compound 681], the remaining activity at 10 µM falls from 10% to 6%.

First: CCCCN(C)C(=O)c1ccc(Cc2cc3c(cc2C)C(C)(C)CCC3(C)C)o1 [Compound 680]
Second: CCN(CC)CCNC(=O)c1ccc(Cc2cc3c(cc2C)C(C)(C)CCC3(C)C)o1 [Compound 615]
The remaining activity at 10 µM of the first is lower: 0% for the first, 7% for the second.

First: Cc1cc2c(cc1Cc1ccc(C(=O)NCCC3CCCN3C)o1)C(C)(C)CCC2(C)C (centres unmarked) [Compound 456]
Second: CCC(C)CNC(=O)c1ccc(Cc2cc3c(cc2C)C(C)(C)CCC3(C)C)o1 (centres unmarked) [Compound 568]
The remaining activity at 10 µM of the first is lower: -12% for the first, 28% for the second.

Going from `Cc1cc2c(cc1Cc1ccc(C(=O)N3CCC[C@H]3CNc3ccccc3)o1)C(C)(C)CCC2(C)C` [Compound 549] to `Cc1cc2c(cc1Cc1ccc(C(=O)NCCc3ccccc3Oc3ccccc3)o1)C(C)(C)CCC2(C)C` [Compound 512], the remaining activity at 10 µM rises from 48% to 51%.

Going from `Cc1cc2c(cc1Cc1ccc(C(=O)NCCCNCCCCNCCCN)o1)C(C)(C)CCC2(C)C` [Compound 472] to `Cc1cc2c(cc1Cc1ccc(C(=O)Nc3nc(N(C)C)nc4nc[nH]c34)o1)C(C)(C)CCC2(C)C` [Compound 517], the remaining activity at 10 µM falls from 42% to 34%.

Work on `Cc1cc2c(cc1Cc1ccc(C(=O)NC3CCCC(Nc4ccnc(NCC5CCCO5)n4)C3)o1)C(C)(C)CCC2(C)C` (centres unmarked) [Compound 473] yielded a remaining activity at 10 µM of -14%.

same assay, conditions: read-out: % Inhib. @ 10 uM mGnRH

`Cc1cc2c(cc1Cc1ccc(C(=O)N3CCC4(CC3)OCCCO4)o1)C(C)(C)CCC2(C)C` showed an inhibition at 10 µM of 99%.

— patent US7101878B1 (Agouron Pharmaceuticals, Inc., priority 1998, dated 2006)
